Assay results as given in BindingDB's records for patent US20240083872 (Shionogi, 2024).

Key:
[1] = biological target: T1, 5-hydroxytryptamine receptor 2C (Homo sapiens, UniProt P28335); assay: 5-HT2C Receptor Binding Inhibition Assay
T1 sequence (P28335 whole entry): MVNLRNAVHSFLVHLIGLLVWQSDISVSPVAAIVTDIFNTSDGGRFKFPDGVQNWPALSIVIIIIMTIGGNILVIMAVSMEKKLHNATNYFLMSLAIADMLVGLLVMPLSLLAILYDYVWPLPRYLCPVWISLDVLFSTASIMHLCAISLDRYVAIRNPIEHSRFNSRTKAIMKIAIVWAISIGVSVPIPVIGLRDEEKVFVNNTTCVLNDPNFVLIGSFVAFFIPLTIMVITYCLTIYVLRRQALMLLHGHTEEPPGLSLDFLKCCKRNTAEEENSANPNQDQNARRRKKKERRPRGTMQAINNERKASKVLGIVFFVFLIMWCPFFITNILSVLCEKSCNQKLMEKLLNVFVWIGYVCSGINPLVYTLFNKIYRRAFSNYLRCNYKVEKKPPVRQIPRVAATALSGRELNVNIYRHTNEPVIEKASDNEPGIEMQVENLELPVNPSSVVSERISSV
Description: (§1) Binding Test of the Compound According to the Present Invention:In advance, 0.5 μL of the compound solution dissolved in DMSO was dispensed into a microplate, and the cell membrane and the hot ligand were diluted with Assay buffer, respectively. Then, the Assay buffer containing the diluted cell membrane was dispensed into a microplate at 50 μL/well. Then, the radioactive ligand solution was dispensed into a microplate at 50 μL/well, and the plate was sealed. Then, it was allowed to stand at 37° C. for 2 hours. During this period, 50 mmol/L Tris-HCl (pH 7.4) was dispensed into a GF/B UniFilter plate at 50 μL/well and allowed to stand at 4° C. for 1 hour or longer. After that, filtration was performed with Cell harvester (PerkinElmer). After the GF/B UniFilter plate was dried at room temperature, MicroScinti 20 was dispensed into the GF/B UniFilter plate at 50 μL/well, and the plate was sealed. […] The radioactivity of [3H]-Mesulergine bound to the […] receptor was measured using Microbeta2 (PerkinElmer) at a measurement time of 1 min/well. The non-specific binding was calculated from the radioactivity of [3H]-Mesulergine in the presence of 500 μmol/L Serotonin HCl with the unlabeled ligand, and the total binding was calculated from the radioactivity of [3H]-Mesulergine in the absence of the compound according to the present invention (Vehicle).

[2] = biological target: 5-hydroxytryptamine receptor 2A (Homo sapiens, UniProt P28223); assay: 5-HT2A Receptor Binding Inhibition Assay
Description: as §1, with “Present Invention: In” for “Present Invention:In”, “at room temperature (25° C.)” for “at 37° C.”, “for 1.5” for “for 2”, “(PerkinElmer).” for “(PerkinElmer). After the GF/B UniFilter plate was dried at room temperature, MicroScinti 20 was dispensed into the GF/B UniFilter plate at 50 μL/well, and the plate was sealed.”, “of [3H]-Ketanserin” for “of [3H]-Mesulergine”, “(Vehicle). Finally, the Ki value was calculated from the dose-response curve.” for “(Vehicle).”

Sequence of 5-hydroxytryptamine receptor 2A (P28223 whole entry): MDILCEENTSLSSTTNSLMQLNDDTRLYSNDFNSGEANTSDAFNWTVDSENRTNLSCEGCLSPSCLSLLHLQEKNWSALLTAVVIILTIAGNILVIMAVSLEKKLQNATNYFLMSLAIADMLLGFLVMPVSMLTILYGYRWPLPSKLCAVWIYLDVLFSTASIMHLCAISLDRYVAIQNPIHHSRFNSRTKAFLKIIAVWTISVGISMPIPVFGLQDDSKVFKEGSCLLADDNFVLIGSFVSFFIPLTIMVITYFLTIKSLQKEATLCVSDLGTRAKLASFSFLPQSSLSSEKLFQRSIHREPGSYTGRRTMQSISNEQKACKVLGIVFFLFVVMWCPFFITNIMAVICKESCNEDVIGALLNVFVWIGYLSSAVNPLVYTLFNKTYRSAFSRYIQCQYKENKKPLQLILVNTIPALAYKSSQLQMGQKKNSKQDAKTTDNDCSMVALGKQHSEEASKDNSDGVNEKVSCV

Question: With `CC(C)CNc1ccc(CN(Cc2ccn(C)n2)C(=O)NC2CCN(C)CC2)cc1` [US20240083872, Compound I-030] as the molecule, how does the Ki [1] read?
Answer: Its Ki is 7.76 nM.

Question: And the Ki [2]?
Answer: The Ki was 2.17 nM.
